Like-named read-outs stand apart in the source and are kept apart here.
Legend:
Format in all cases: cell-based
[1] = target: T1, Human Nav1.8 (Homo sapiens, UniProt Q9Y5Y9); assay: VIPR Assay for Nav1.8 Compounds (FRET membrane potential, deltamethrin opener); settings: VIPR FRET membrane potential assay, deltamethrin opener; average of replicates; read-out: Nav1.8 IC50
T1 construct: expressed in transfected cells; host or cells: HEK293

[2] = system: tetrodotoxin-sensitive voltage-gated sodium channels including NaV1.2, NaV1.3 and NaV1.7; assay: TTX-S Assay (VIPR, SHSY-5Y cell line, veratridine opener)
[3] = target: T2, Human Nav1.5 (Homo sapiens, UniProt Q14524); assay: Nav1.5 Assay (VIPR, HEK293 cells); settings: HEK293 cells expressing Human Nav1.5; average of replicates; read-out: Nav1.5 IC50
T2 construct: expressed in transfected cells; host or cells: HEK293
T2 sequence (Q14524 whole entry): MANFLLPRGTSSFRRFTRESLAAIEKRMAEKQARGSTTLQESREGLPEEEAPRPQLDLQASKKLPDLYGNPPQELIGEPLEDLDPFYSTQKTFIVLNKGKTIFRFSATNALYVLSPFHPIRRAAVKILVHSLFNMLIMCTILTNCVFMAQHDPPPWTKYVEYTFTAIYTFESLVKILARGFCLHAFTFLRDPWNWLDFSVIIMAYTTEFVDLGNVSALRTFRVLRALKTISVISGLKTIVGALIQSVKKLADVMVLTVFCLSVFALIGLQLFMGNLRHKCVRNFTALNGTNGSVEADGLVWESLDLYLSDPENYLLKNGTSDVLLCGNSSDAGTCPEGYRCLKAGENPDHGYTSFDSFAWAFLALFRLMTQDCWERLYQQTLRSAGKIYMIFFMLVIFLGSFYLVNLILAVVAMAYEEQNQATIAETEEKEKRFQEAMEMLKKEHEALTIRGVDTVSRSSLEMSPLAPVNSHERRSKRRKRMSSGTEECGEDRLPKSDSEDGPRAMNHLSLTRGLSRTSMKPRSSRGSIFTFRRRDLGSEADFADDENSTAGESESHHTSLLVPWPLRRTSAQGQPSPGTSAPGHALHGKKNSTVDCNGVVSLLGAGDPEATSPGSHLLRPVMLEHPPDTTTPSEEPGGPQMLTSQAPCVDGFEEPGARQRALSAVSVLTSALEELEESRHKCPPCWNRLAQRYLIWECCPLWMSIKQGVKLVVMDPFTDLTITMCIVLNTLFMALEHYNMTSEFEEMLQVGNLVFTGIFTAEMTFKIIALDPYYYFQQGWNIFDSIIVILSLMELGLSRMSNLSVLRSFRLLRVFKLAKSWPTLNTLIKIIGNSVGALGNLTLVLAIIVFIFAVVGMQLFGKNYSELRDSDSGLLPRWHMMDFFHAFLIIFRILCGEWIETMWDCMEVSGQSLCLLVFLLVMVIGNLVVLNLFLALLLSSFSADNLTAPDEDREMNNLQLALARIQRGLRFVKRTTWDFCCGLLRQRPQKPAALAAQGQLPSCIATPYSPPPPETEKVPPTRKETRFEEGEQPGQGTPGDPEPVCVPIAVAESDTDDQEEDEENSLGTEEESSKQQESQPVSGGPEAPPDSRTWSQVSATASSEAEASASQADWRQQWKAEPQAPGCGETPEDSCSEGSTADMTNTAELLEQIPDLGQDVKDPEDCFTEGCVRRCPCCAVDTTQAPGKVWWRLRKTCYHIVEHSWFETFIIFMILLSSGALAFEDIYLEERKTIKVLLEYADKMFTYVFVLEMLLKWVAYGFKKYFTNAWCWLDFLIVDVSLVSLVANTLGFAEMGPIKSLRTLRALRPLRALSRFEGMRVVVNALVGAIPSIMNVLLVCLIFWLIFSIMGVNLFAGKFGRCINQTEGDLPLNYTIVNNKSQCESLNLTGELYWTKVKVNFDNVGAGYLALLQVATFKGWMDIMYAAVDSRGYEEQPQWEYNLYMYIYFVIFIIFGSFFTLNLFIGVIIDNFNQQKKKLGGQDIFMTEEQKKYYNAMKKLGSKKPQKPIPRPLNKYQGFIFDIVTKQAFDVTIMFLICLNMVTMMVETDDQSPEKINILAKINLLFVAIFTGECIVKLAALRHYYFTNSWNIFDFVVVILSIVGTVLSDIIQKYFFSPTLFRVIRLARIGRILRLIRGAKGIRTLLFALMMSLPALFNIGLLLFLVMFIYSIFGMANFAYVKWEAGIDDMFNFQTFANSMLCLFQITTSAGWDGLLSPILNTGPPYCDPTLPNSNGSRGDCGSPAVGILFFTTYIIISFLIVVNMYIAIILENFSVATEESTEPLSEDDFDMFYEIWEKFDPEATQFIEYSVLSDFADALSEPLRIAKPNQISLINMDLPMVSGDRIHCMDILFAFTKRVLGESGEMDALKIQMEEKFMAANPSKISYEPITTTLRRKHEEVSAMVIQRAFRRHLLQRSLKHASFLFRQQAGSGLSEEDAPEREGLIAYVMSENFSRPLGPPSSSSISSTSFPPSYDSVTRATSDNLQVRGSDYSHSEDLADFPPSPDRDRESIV
Description: The Nav1.5 assay is performed in HEK293 cells expressing Human Nav1.5 in the same way as the Nav1.8 assay.
Where replicate experiments were conducted resulting in multiple sets of data for a test compound, the data presented represent the average value from all replicate experiments.

[4] = read-out: TTX-S IC50, veratridine 50 μM opener, average of replicates

T1 sequence (Q9Y5Y9 whole entry): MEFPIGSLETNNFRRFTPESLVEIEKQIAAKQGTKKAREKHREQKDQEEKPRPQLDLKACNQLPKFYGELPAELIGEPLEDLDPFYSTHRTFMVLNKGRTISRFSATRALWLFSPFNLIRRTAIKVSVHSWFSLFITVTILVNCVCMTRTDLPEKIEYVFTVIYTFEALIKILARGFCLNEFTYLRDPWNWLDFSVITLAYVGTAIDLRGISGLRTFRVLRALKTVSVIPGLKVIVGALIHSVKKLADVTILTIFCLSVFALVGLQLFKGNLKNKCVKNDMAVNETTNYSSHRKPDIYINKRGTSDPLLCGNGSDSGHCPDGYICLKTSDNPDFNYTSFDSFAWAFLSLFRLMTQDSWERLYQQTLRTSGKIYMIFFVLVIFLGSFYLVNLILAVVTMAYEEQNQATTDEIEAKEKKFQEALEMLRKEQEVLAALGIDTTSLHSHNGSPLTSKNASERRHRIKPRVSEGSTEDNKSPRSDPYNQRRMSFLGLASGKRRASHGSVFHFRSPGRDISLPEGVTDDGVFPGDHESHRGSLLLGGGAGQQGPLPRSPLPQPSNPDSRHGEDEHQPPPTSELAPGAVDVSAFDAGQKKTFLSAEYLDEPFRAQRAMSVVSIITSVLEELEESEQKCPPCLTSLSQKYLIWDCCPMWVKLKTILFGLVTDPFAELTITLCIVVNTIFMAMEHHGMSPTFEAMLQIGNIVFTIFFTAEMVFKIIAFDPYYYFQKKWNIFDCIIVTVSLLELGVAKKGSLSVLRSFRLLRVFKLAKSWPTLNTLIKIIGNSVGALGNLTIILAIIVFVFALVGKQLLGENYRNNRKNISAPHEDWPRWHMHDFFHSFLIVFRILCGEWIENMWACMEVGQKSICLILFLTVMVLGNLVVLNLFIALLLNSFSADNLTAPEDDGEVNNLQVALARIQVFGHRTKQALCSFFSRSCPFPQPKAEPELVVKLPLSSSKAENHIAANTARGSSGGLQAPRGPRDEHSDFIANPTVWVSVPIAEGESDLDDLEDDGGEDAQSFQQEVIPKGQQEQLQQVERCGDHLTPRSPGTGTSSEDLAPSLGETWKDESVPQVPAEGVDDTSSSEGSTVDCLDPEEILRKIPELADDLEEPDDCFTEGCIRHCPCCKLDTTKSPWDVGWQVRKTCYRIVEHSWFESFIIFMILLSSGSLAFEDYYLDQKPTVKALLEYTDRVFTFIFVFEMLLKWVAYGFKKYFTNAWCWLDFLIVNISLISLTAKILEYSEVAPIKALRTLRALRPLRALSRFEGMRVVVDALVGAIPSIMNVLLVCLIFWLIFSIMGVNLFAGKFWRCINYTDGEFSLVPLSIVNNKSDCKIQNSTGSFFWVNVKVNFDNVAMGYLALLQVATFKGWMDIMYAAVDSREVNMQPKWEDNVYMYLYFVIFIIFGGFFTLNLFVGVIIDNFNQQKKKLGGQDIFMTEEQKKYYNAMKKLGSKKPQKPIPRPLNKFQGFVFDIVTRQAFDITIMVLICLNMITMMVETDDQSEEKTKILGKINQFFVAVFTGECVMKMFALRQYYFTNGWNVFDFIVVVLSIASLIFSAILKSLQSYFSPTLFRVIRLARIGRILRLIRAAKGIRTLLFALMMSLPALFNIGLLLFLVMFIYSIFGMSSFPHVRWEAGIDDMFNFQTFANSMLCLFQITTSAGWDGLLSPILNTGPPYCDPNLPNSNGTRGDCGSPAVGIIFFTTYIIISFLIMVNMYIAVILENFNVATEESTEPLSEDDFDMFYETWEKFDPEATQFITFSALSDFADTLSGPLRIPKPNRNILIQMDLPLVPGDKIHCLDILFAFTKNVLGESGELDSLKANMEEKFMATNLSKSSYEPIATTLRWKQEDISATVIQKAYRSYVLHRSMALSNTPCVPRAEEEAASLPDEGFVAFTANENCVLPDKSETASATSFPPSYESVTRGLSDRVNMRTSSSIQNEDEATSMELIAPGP

Row | Compound | IC50 [1] [µM] | IC50 [2, 4] [µM] | IC50 [3] [µM] | IC50 ([2]; veratridine 50 μM opener, average of replicates, read-out: TTX-S IC50) [µM]
1 | CCn1nccc1C(=O)Nc1ccc(-c2cc(OC)cc(Cl)c2Cl)c(N)n1 [Example 61, N-[6-Amino-5-(2,3-dichloro-5-methoxyphenyl)pyridin-2-yl]-1-ethyl-1H-pyrazole-5-carboxamide] | 1.3 | 9.7 | 9.7 | 
2 | Cc1nocc1C(=O)Nc1ccc(-c2cc(F)ccc2O)c(N)n1 [Example 128] | 15 | > 32 | > 32 | 
3 | COc1cc(Cl)cc(-c2ccc(NC(=O)c3conc3C)nc2N)c1Cl [Example 27, N-[6-Amino-5-(2,5-dichloro-3-methoxyphenyl)pyridin-2-yl]-3-methylisoxazole-4-carboxamide] | 0.37 | 3.2 | 10 | 
4 | Cc1nocc1C(=O)Nc1ccc(-c2cc(Cl)ccc2OC(F)(F)F)c(N)n1 [Example 32, N-{6-Amino-5-[5-chloro-2-(trifluoromethoxy)phenyl]pyridin-2-yl}-3-methylisoxazole-4-carboxamide] | 0.64 | 2.6 | 7.8 | 
5 | Cn1nncc1C(=O)Nc1ccc(-c2cc(Cl)ccc2Cl)c(N)n1 [Example 80, N-[6-Amino-5-(2,5-dichlorophenyl)pyridin-2-yl]-1-methyl-1H-1,2,3-triazole-5-carboxamide] | 3.4 | 15 | 15 | 
6 | Cc1nocc1C(=O)Nc1ccc(-c2ccccc2OC(F)(F)F)c(N)n1 [Example 43, N-{6-Amino-5-[2-(trifluoromethoxy)phenyl]pyridin-2-yl}-3-methylisoxazole-4-carboxamide] | 0.32 | 10 | 12 | 
7 | COCc1cc(C(=O)Nc2ccc(-c3cc(F)ccc3Cl)c(N)n2)on1 [Example 96] | 5.9 | 12 | 7.1 | 
8 | Cc1nocc1C(=O)Nc1ccc(-c2ccccc2F)c(N)n1 [Example 33, N-[6-Amino-5-(2-fluorophenyl)pyridin-2-yl]-3-methylisoxazole-4-carboxamide] | 6.5 | 23 | > 32 | 
9 | Cn1nccc1C(=O)Nc1ccc(-c2ccccc2Cl)c(N)n1 [Example 1, N-[6-Amino-5-(2-chlorophenyl)pyridin-2-yl]-1-methyl-1H-pyrazole-5-carboxamide] | 5.8 | > 32 | 24 | 
10 | CCn1nccc1C(=O)Nc1ccc(-c2cc(Cl)ccc2Cl)c(N)n1 [Example 56, N-[6-Amino-5-(2,5-dichlorophenyl)pyridin-2-yl]-1-ethyl-1H-pyrazole-5-carboxamide] | 2.4 | 8.1 | 17 | 
11 | Nc1nc(NC(=O)c2conc2C(F)(F)F)ccc1-c1ccccc1OC(F)(F)F [Example 112] | 0.94 | 4.5 | 7.7 | 
12 | Cn1nccc1C(=O)Nc1ccc(-c2cc(Cl)ccc2OC(F)(F)F)c(N)n1 [Example 16, N-{6-Amino-5-[5-chloro-2-(trifluoromethoxy)phenyl]pyridin-2-yl}-1-methyl-1H-pyrazole-5-carboxamide] | 1.9 | 9.6 | 11 | 
13 | CCn1nccc1C(=O)Nc1ccc(-c2cc(Cl)cc(OC)c2Cl)c(N)n1 [Example 62, N-[6-Amino-5-(2,5-dichloro-3-methoxyphenyl)pyridin-2-yl]-1-ethyl-1H-pyrazole-5-carboxamide] | 5.1 | 11 | 17 | 
14 | Cn1nccc1C(=O)Nc1ccc(-c2ccccc2OC(F)F)c(N)n1 [Example 19, N-{6-Amino-5-[2-(difluoromethoxy)phenyl]pyridin-2-yl}-1-methyl-1H-pyrazole-5-carboxamide] | 14 | 25 | > 32 | 
15 | CCn1nccc1C(=O)Nc1ccc(-c2cc(OC(F)(F)F)ccc2Cl)c(N)n1 [Example 65, N-{6-Amino-5-[2-chloro-5-(trifluoromethoxy)phenyl]pyridin-2-yl}-1-ethyl-1H-pyrazole-5-carboxamide] | 5.3 | 3.2 | 12 | 
16 | Cn1nccc1C(=O)Nc1ccc(-c2ccc(F)cc2Cl)c(N)n1 [Example 10, N-[6-Amino-5-(2-chloro-4-fluorophenyl)pyridin-2-yl]-1-methyl-1H-pyrazole-5-carboxamide] | 25 | > 32 | > 32 | 
17 | Cn1nccc1C(=O)Nc1ccc(-c2cc(F)ccc2Cl)c(N)n1 [Example 6, N-[6-Amino-5-(2-chloro-5-fluorophenyl)pyridin-2-yl]-1-methyl-1H-pyrazole-5-carboxamide] | 1.1 | 23 | 13 | 

Row | Compound | IC50 [1] [µM] | IC50 [2, 4] [µM] | IC50 [3] [µM] | IC50 ([2]; veratridine 50 μM opener, average of replicates, read-out: TTX-S IC50) [µM]
18 | Cn1ccc(C(=O)Nc2ccc(-c3cc(Cl)cc(Cl)c3Cl)c(N)n2)n1 [Example 70, N-[6-Amino-5-(2,3,5-trichlorophenyl)pyridin-2-yl]-1-methyl-1H-pyrazole-3-carboxamide] | 11 | 14 | 28 | 
19 | COCc1nocc1C(=O)Nc1ccc(-c2ccccc2Cl)c(N)n1 [Example 89, N-[6-Amino-5-(2-chlorophenyl)pyridin-2-yl]-3-(methoxymethyl)isoxazole-4-carboxamide] | 4.4 | > 32 | > 32 | 
20 | COc1cc(Cl)cc(-c2ccc(NC(=O)c3ccnn3C)nc2N)c1Cl [Example 8, N-[6-Amino-5-(2,5-dichloro-3-methoxyphenyl)pyridin-2-yl]-1-methyl-1H-pyrazole-5-carboxamide] | 1.6 | 7.6 | 20 | 
21 | Cc1nocc1C(=O)Nc1ccc(-c2ccccc2Cl)c(N)n1 [Example 26, N-[6-Amino-5-(2-chlorophenyl)pyridin-2-yl]-3-methylisoxazole-4-carboxamide] | 0.56 | 8.5 | 11 | 
22 | COc1cc(Cl)c(Cl)c(-c2ccc(NC(=O)c3ccnn3C)nc2N)c1 [Example 7, N-[6-Amino-5-(2,3-dichloro-5-methoxyphenyl)pyridin-2-yl]-1-methyl-1H-pyrazole-5-carboxamide] | 0.63 | 9.2 | 6.3 | 
23 | COCc1cc(C(=O)Nc2ccc(-c3ccccc3Cl)c(N)n2)on1 [Example 95] | > 32 | 29 | > 32 | 
24 | CCn1nccc1C(=O)Nc1ccc(-c2cc(F)ccc2C(F)(F)F)c(N)n1 [Example 57, N-{6-Amino-5-[5-fluoro-2-(trifluoromethyl)phenyl]pyridin-2-yl}-1-ethyl-1H-pyrazole-5-carboxamide] | 3.7 | 21 | > 32 | 
25 | COCc1nocc1C(=O)Nc1ccc(-c2cc(F)ccc2Cl)c(N)n1 [Example 90, N-[6-Amino-5-(2-chloro-5-fluorophenyl)pyridin-2-yl]-3-(methoxymethyl)isoxazole-4-carboxamide] | 0.55 | > 32 | > 32 | 
26 | Cc1nocc1C(=O)Nc1ccc(-c2cc(F)ccc2Cl)c(N)n1 [Example 41, N-[6-Amino-5-(2-chloro-5-fluorophenyl)pyridin-2-yl]-3-methylisoxazole-4-carboxamide] | 0.25 | 11 | 12 | 
27 | Cc1nocc1C(=O)Nc1ccc(-c2cc(Cl)cc3c2OCCO3)c(N)n1 [Example 30, N-[6-Amino-5-(7-chloro-2,3-dihydro-1,4-benzodioxin-5-yl)pyridin-2-yl]-3-methylisoxazole-4-carboxamide] | 1.3 | 28 | 16 | 
28 | Cc1nocc1C(=O)Nc1ccc(-c2cc(F)ccc2C(F)(F)F)c(N)n1 [Example 39, N-{6-Amino-5-[5-fluoro-2-(trifluoromethyl)phenyl]pyridin-2-yl}-3-methylisoxazole-4-carboxamide] | 0.93 | 13 | 21 | 
29 | Cc1nocc1C(=O)Nc1ccc(-c2ccccc2C(F)(F)F)c(N)n1 [Example 2, N-{6-Amino-5-[2-(trifluoromethyl)phenyl]pyridin-2-yl}-3-methylisoxazole-4-carboxamide] | 1.7 | 30 | > 32 | 
30 | Cn1nccc1C(=O)Nc1ccc(-c2ccccc2OC(F)(F)F)c(N)n1 [Example 11, N-{6-Amino-5-[2-(trifluoromethoxy)pheny]pyridin-2-yl}-1-methyl-1H-pyrazole-5-carboxamide] | 2.4 |  | 18 | 11
31 | Cn1nccc1C(=O)Nc1ccc(-c2ccccc2OCC(F)(F)F)c(N)n1 [Example 119] | 2 | 26 | 31 | 
32 | CCn1nccc1C(=O)Nc1ccc(-c2ccc(F)cc2Cl)c(N)n1 [Example 55, N-[6-Amino-5-(2-chloro-4-fluorophenyl)pyridin-2-yl]-1-ethyl-1H-pyrazole-5-carboxamide] | 23 | > 32 | > 32 | 
33 | CC(C)n1nccc1C(=O)Nc1ccc(-c2ccccc2OC(F)(F)F)c(N)n1 [Example 68, N-{6-Amino-5-[2-(trifluoromethoxy)phenyl]pyridin-2-yl}-1-isopropyl-1H-pyrazole-5-carboxamide] | 3.9 | 5 | 17 | 
34 | Cc1nocc1C(=O)Nc1ccc(-c2cc(OC(F)(F)F)ccc2Cl)c(N)n1 [Example 37, N-{6-Amino-5-[2-chloro-5-(trifluoromethoxy)phenyl]pyridin-2-yl}-3-methylisoxazole-4-carboxamide] | 0.44 | 1.2 | 3.6 | 
